The record followed here is patent US6379670B1, “Methods for treatment of multiple sclerosis using peptide analogs of human myelin basic protein” (Neurocrine Biosciences, Inc., priority 1994, dated 2002).

Entries after “also recorded” stand apart in the source; their conditions may differ. Non-standard residues stand in square brackets, D forms with d. No end group written: not given here.

One assay has as its system EAE in Lewis rats. Briefly: Treatment of MBP(83-99)-induced EAE in Lewis rats with peptide analogs (subcutaneous). The class given is in vivo, Lewis rat. As for the experimental part: In this system, experimental allergic encephalomyelitis (EAE) was induced in twelve female Lewis rats by injection of MBP(83-99) peptide in complete Freund's adjuvant (CFA) at the base of the tail. Nine days later, rats were divided into two groups of six animals and subcutaneously injected with 13.2 mg/kg of either peptide analog or a control peptide, sperm whale myoglobin (SWM) (110-121). Animals were monitored daily for disease symptoms and scored in a blinded fashion on a nonlinear ascending scale of 0-4 with increments denoting increasing paralysis. Each individual score was averaged with group cohorts to obtain the mean clinical score.

Assay [1] has as its system draining lymph node T cells of SJL mice. Briefly: Induction of Th2 response in SJL mice, ex vivo lymph node cell proliferation. More on the design: species or system mouse. As for the experimental part: SJL/J female mice (3 per group) were injected weekly on days 0, 7, 14 and 21 subcutaneously with 20 mg/kg of NBI-5788 in the flanks. On day 28, the mice were sacrificed, the draining lymph node removed, a single cell suspension was made and the ability of the cells to proliferate in response to 25 μM NBI-5788 was determined. The data, shown in FIG. 28, represent the mean of triplicate wells.

Assay [2] relates to peripheral blood T cells of MS patients. Briefly: Frequency of antigen-reactive peripheral blood T cells after NBI-5788 treatment of MS patients (split-well). The class given is in vivo, human. The protocol: MS patients studied were those participating in phase I clinical trials using NBI-5788 administered subcutaneously (5, 10 or 20 mg) weekly for four weeks. Patients had MRI evaluations performed at baseline and at 6 and 12 weeks. All but 1 patient had secondary or primary progressive disease (SP or PP, respectively). For patients in group A, immunologic evaluations involving use of NBI-5788 as antigen could be performed only 9 months after completion of the treatment phase of the study. For patients in group B, immunologic evaluation was performed just prior to entry into the study (pre-treatment) and after 3 months following completion of the 1 month treatment phase. Two additional patients with SP MS, one with relapsing remitting (RR) MS and 3 normal controls were also studied.
Immune response to the peptide analog was assessed by measuring the frequency of proliferating peripheral blood T cells using a split-well microtiter method (i.e., number of positive wells {Δ cpm >1000, stimulation index>3} divided by the total number of wells assayed). Peripheral blood mononuclear cells (PBMC) were isolated from venous blood by Ficoll-Hypaque density gradient centrifugation, washed twice and resuspended in complete tissue culture medium (Iscove's modification of Dulbecco's medium containing 10% heat-inactivated, pooled, human A-B serum, 2 mM L-glutamine, 100 U/ml penicillin/streptomycin and 50 μg/ml gentamycin). PBMC from each patient were seeded at 10^5/well in 96 well, U-bottom microtiter plates containing 25 μg/ml whole MBP, 10 μg/ml NBI-5788 or medium alone in a volume of 200 μl. Three days later supernatants were collected and frozen at −80° C. and fresh medium containing IL-2 (10 U/ml) was added. IL-2-containg medium was refreshed on Day 7 and Day 11. On Day 14, the frequency of antigen response was determined by the “split well” technique. Briefly, cells from one primary well were split into replicate experimental wells in the presence of 10^5 freshly isolated autologous, irradiated peripheral blood mononuclear cells (APCs): one containing the original antigen (25 μg/ml) and one without antigen. Two days later supernatants were collected and the wells pulsed with 1 µCi/well [^3H]-thymidine ([…]) for the final 18 hours of culture. ^3H-Thymidine uptake was measured in a beta counter. […] The association between T cell frequency and NBI-5788 treatment was evaluated by χ^2 contingency analysis.

Assay [3] relates to NBI-5788- or MBP-reactive TCL from MS patients. Nature of the assay: Cytokine secretion (IFN-γ, IL-5) by TCL from MS patients, ELISA. The class given is in vivo, human. As for the experimental part:
To more fully characterize the nature of the immune response generated following APL administration, proliferating NBI-5788- or MBP-reactive TCL were established from untreated or NBI-5788-treated MS patients. […] Levels of Th2 cytokine IL-5 and Th1 cytokine IFN-γ were measured in culture supernatants collected 48 hours after stimulation with the selecting antigen, either NBI-5788 or whole MBP. Cytokines produced by T cell lines were assayed by ELISA. To measure cytokine levels, a sandwich ELISA method was used as follows: Nunc Maxisorp microtiter plates (Nalge Nunc, Denmark) were coated with capture mAb (Pharmingen, San Diego, Calif.) at 2 μg/ml for IL-4, IL-10, IL-13 and IFN-γ or at 1 μg/ml for IL-5. The capture mAb was diluted with 0.1 M NaHCO3 dispensed on the plate and incubated at 4° C. overnight. Plates were then blocked for at least 30 minutes at RT with 1% BSA (Sigma, St. Louis, Mo.) for IL-4, IL-5, IL-10 and IL-13 or 1% casein (Sigma) for IFN-γ. Standards were serially diluted (1000-1 pg/ml for IL-4 and 4000-5.5 pg/ml for IL-5, IL-10, IL-13 and IFN-γ) in blocking buffer and added to the plate. Samples were diluted at least 1:2 in blocking buffer and added to the plate. The plates were incubated at room temperature for one hour. The plates were washed and the biotinylated detection mAb (Pharmingen) was added to the plates at 1 μg/ml for IL-5 and IFN-γ or 2 μg/ml for IL-4, L-10, and IL-13. The plates were incubated for 1.5 hours at RT. After washing the plates streptavidin-peroxidase (Pierce, Rockford, Ill.) was added at 1 μg/ml for IL-5, IL-10, and IL-13 or 2 μg/ml for IL-4 and IFN-γ. The plates were incubated for 20-30 minutes. After washing thoroughly, TMB (Calbiochem, San Diego, Calif.) was added and the color was allowed to develop. The reaction was stopped by 0.2N H2SO4 and absorbance at 450 nm was determined. The association between cytokine phenotype and NBI-5788 treatment was evaluated by χ^2 contingency analysis. Mean cytokine secretion levels were compared using MannWhitney U test for non-parametric data. Probability values≦0.05 were considered significant.
On the technique in general: An ELISA detects its analyte on a solid surface through an enzyme-linked reagent.

“MBP(83-99) (83E>a, 84N>K, 89F>L, and 91K>A) ([dA]KPVVHLFANIVTPRTP) [NBI-5788]”: in the assay with EAE in Lewis rats (13.2 mg/kg subcutaneously on day 9, FIG. 9), the “reduction of disease severity compared to the control group” value is reported as “about 50%”. In addition, the “effect on EAE disease severity versus control peptide” value in the assay on EAE in Lewis rats (13.2 mg/kg subcutaneously on day 9, FIGS. 10 and 11) is “significantly reduced the severity and duration of the disease”. In assay [1] (20 mg/kg subcutaneously on days 0, 7, 14 and 21, ex vivo proliferation to 25 μM NBI-5788, FIG. 28), the “immune response induced by repeated dosing” value is “induces a Th2 response”. In assay [1] (four doses at weekly intervals), the “response with successive weekly doses” value was “stronger response after each subsequent dose”. Further, the “mean frequency of NBI-5788-reactive T cells after treatment” value in assay [2] (5, 10 or 20 mg, four times weekly, seven MS patients) was 35.8±12.8%. Further, the “mean frequency of MBP-reactive T cells after treatment” value in assay [2] (after treatment with NBI-5788 (n=7)) is given as 16.4±5.7%. The “change of frequency of MBP-reactive T cells following administration” value in assay [2] (human, in vivo) was “does not change markedly”. For the same substance, in assay [2] (human, in vivo, sc), the “change of NBI-5788-reactive T cells in peripheral blood after subcutaneous administration versus untreated MS patients” value is listed as “significant (χ^2=82.7, p<0.001) increase; also recorded: strongly induced”. The “MBP-reactive TCL from APL-treated MS patients that secreted more IL-5 than IFN-γ” value in assay [3] (13 of 23 TCL) is given as 56%. The “APL-reactive TCL from APL-treated MS patients that secreted more IL-5 than IFN-γ” value in assay [3] (19 of 32 TCL) is listed as 59%. Moreover, the “change of mean IFN-γ secretion of MBP-reactive and APL-reactive T cell lines, APL-treated compared to non-treated MS patients” value in assay [3] (FIGS. 31A and 31B) is “significant (p<0.05) decrease”. The “cytokine phenotype of NBI-5788-reactive TCL from APL-treated versus untreated MS patients” value in assay [3] (secreting more IL-5 than IFN-γ) is “more Th2-like”. The “change of mean IL-5 secretion of TCL, APL-treated compared to non-treated MS patients” value in assay [3] (significant (p<0.05) for APL-reactive TCL, but not for MBP-reactive TCL) is recorded as “concomitant increase”.
